Literature values as cited in patent US20110312981A1, “PREDICTIVE MARKER FOR EGFR INHIBITOR TREATMENT” (priority 2007, published 2011).

Experiments:
patients with NSCLC = conditions: second line after cisplatin-based first-line regimens failed; ECOG 0, 1 or 2; versus best supportive care
NSCLC = conditions: second line therapy of NSCLC
[1] = patients with cancer receiving the 150 mg/day dose
[2] = tested on: NSCLC patients for whom standard therapy for advanced disease has failed; conditions: single agent, versus placebo, BR.21

CC(=O)O[C@@]12CO[C@@H]1C[C@H](O)[C@@]1(C)C(=O)[C@H](O)C3=C(C)[C@@H](OC(=O)[C@H](O)[C@@H](NC(=O)OC(C)(C)C)c4ccccc4)C[C@@](O)([C@@H](OC(=O)c4ccccc4)[C@H]21)C3(C)C [docetaxel]
survival (patients with NSCLC): improved survival

Nc1nc2[nH]cc(CCc3ccc(C(=O)N[C@@H](CCC(=O)O)C(=O)O)cc3)c2c(=O)[nH]1 [pemetrexed]
efficacy compared with docetaxel (NSCLC): clinically equivalent efficacy | side effects compared with docetaxel (NSCLC): significantly fewer side effects

C#Cc1cccc(Nc2ncnc3cc(OCCOC)c(OCCOC)cc23)c1 [Tarceva, erlotinib]
drug levels in plasma [1]: > 500 ng/mL | survival [2]: significantly prolongs and improves the survival
